Data reported in US6727240B1, “Methods for preventing HIV-1 or HIV-2 infection” (New York Blood Center, Inc., priority 1993, dated 2004).

Experiments:
[1] = test system: HIV-1
Experimental: They were tested for antiviral activity at serial two-fold dilutions (0.16-80 μg/ml^−1). Their inhibitory activity was determined based on inhibition of synthesis of the HIV-1 core protein p24 and on protection by the compounds of cells against the cytopathic effect of HIV-1. The cytotoxic effect of all compounds in the absence of HIV-1 was also determined.
The antiviral activity of the compounds was tested against HIV-1 IIIB, MN, RF and SF-2, as well as against azidothymidine (AZT) resistant variants V32 (Nara, P. L., Smit, L., Dunlop, N., Hatch, W., Merges, M., Waters, D. Kelliher, J., Gallo, R. C., Fischinger, P. J. & Goudsmit, J. (1990), “Emergence of Viruses Resistant to Neutralization by V3-specific Antibodies in Experimental Human Immunodeficiency Virus Type 1 IIIB Infection of Chimpanzees, J. Virol., 64, 3779-3791) and AZT-R (see FIG. 1B).
All chemicals were tested at serial two-fold dilutions (1.25-80 μgml^−1, prepared from a stock solution containing 10 mgml^−1 in dimethylsulphoxide). […] Their inhibitory activity was determined by two distinct methods, based on inhibition of synthesis of core protein p24 and on protection by the chemicals of cells against the cytophathic effect of HIV-1 (colorimetric method), respectively.
The chemicals were serially diluted in RPMl-1640 medium without phenol red (Gibco, Grand Island, N.Y.) containing 10% fetal calf serum (FCS). Aliquots of the diluted solutions were added to wells of 96-well plates and mixed with an equal volume of diluted HIV-1 [multiplicity of infection (MOl)=0.0045]. After incubation for 1 hour at 37° C., 25 μl of polybrene (1 μgml^−1)-treated MT-2 cells (Harada et al., (1985), “Infection of HTLV-III/LAV in HTLV-1-Carrying Cells MT-2 and MT-4 and Application in Plaque Assay”, Science, 229, 563-566) (5000 cells/well) were added. The mixture was incubated for 1 hour at 37° C. and the volume was adjusted with RPMl-1640 medium with 10% FCS to 200 μl. On the fourth and sixth day after incubation at 37° C., 100 μl of culture supernatants were collected from each well and equal volumes of fresh medium were added to the wells. The supernatants were collected from each well and equal volumes of fresh medium were added to the wells. The supernatants were assayed for p24 using a kit from Coulter Immunology (Hialeah, Fla.). On the sixth day, an indicator, XTT tetrazolium dye (1 mg/ml:50 μl/well; PolySciences, Inc., Warrington, Pa.) was added to the cells. After 4 hours intracellular formazan was determined colorimetrically at 450 nm.

[2] = test system: MT-2 cells; assay: Cytotoxic effect in the absence of HIV-1 (lysis of uninfected cells); assay type: cell-based
[3] = test system: V3 hypervariable loop peptides from gp120 from 21 distinct HIV-1 isolates; assay: ELISA: reaction of V3 hypervariable loop peptides with homologous anti-peptide antisera; assay type: binding; details: rabbit antisera diluted 1:1,000; FIG. 2
Experimental: (§1) The inhibitory effect of PTP-IX and its metal derivatives on binding to gp120 of monoclonal antibodies (mAbs) specific for the V3 loop or for the CD4 binding site was measured by ELISA tests using as second antibodies horseradish peroxidase (HRP) labeled anti-mouse IgG.
Sn-PTP-IX was also tested for inhibition of the reaction between V3 hypervariable loop peptides from 21 distinct HIV-1 isolates and the corresponding homologous antipeptide antibodies. […] With respect of FIG. 2, peptide coated wells of polystyrene plates were reacted in the presence and absence of the porphyrin derivative with the respective rabbit antisera diluted 1:1,000, and the attachment of rabbit IgG was subsequently determined using horseradish peroxidase labeled anti-rabbit IgG.
(§2) The inhibitory effect of PTP-IX and its metal complexes on the reaction between antibodies of distinct specificities and gp120 (or synthetic peptides derived from it) was calculated by the following formula: [formula]

[4] = target: T1, CD4 binding site of gp120 (recombinant gp120) (Human immunodeficiency virus type 1 group M subtype B, UniProt P03375); assay: ELISA: binding of mAb 588D to gp120-coated wells; parameters: species or system HIV-1; details: mAb 588D 200 ng/well; FIG. 3
T1 construct: recombinant gp120 produced insect cells infected with a baculovirus vector; host or cells: insect cells infected with a baculovirus vector
Experimental: as §1
The inhibitory effect of Sn-PTP-IX on the reaction between gp120 and mAb specific for the CD4 binding site on gp120 was also investigated. For this purpose, mAb 588D (obtained from the AIDS Research and Reagent Reference Program and from Dr. S. Zolla-Pazner of New York Veterans Affairs Medical Center) was used.
as §2

[5] = test system: deletion mutant of gp120 lacking the V3 loop sequence; assay: Binding of CD4-binding-site mAbs to gp120 deletion mutant; parameters: species or system HIV-1
[6] = versus Sn-PTP-IX; cited from earlier work

| Compound | S.I. = selectivity index = CD50/ED50 (toxicity/activity) [1] | CD50 = concentration at which 50% of uninfected cells were lysed [2] | further results |
| --- | --- | --- | --- |
| C=Cc1c(C)c2cc3[nH]c(cc4nc(cc5nc(cc1[nH]2)C(C)=C5CCC(=O)[O-])C(CCC(=O)[O-])=C4C)c(C)c3C=C.[Co+2] [Co-Protoporphyrin IX] | >6.2 | – | – |
| C=CC1=C(C)c2cc3[n-]c(cc4[n-]c(cc5nc(cc1n2)C(C)=C5C=C)c(C)c4CCC(=O)O)c(CCC(=O)O)c3C.[Mn+2] [Mn-Protoporphyrin IX] | >2.8 | >80 µg/mL | – |
| C=CC1=C(C)c2cc3[nH]c(cc4nc(cc5[nH]c(cc1n2)c(C)c5CCC(=O)O)C(CCC(=O)O)=C4C)c(C)c3C=C [Protoporphyrin IX] | 7.3 | – | – |
| C=Cc1c2[n-]c(c1C)/C=c1\[n-]/c(c(C)c1C=C)=C\c1[n-]c(c(CCC(=O)O)c1C)C=c1[n-]/c(c(C)c1CCC(=O)O)=C\2.[Sn+4] [Sn-Protoporphyrin IX, tin protoporphyrin IX] | 33.5 | 18.0 µg/mL | Inhibition of the reaction between V3 loop peptides and homologous antibodies [3]: inhibited; Inhibition of binding of mAb 588D to gp120 [4]: blocked in a concentration dependent manner; Inhibition of binding of CD4-binding-site mAbs to gp120 lacking the V3 loop [5]: not observed; Inhibition of HIV-1 infection (in words) ([1]; compared with metal-free PTP-IX): effectively inhibited HIV-1 infection at considerably lower concentrations than did metal-free PTP-IX |
| C=CC1=C(C)c2cc3[n-]c(cc4[n-]c(cc5nc(cc1n2)C(C)=C5C=C)c(C)c4CCC(=O)O)c(CCC(=O)O)c3C.[Zn+2] [Zn-Protoporphyrin IX] | >3.1 | – | ED50 values relative to Sn-PTP-IX (times higher) [6]: approximately 50 times |
| tin mesoporphyrin IX [Sn-Mesoporphyrin IX] | >5.6 | >20 µg/mL | – |
